Test results published in ChEMBL document CHEMBL1773045, “Conjugate (MTC-220) of muramyl dipeptide analogue and paclitaxel prevents both tumor growth and metastasis in mice” (J Med Chem, 2011).
Activity calls are given as the source filed them. The rule behind the calls is not given here.

How the values were obtained:
Mus musculus [1] = assay: Toxicity in mouse 4T1 cells xenografted […] mouse assessed as decrease in body weight at 3 mg/kg, ip qd for 28 days; type: organism-based; set-up: dose 3 mg/kg, route intraperitoneal; settings: in vivo, 672 h
Mus musculus [2] = assay: Antimetastatic activity against mouse 4T1 cells xenografted in BALB/c mouse assessed as reduction of myeloid derived suppressor cells accumulation in bone marrow at 3 mg/kg, ip qd for 23 days by flow cytometry analysis relative to control; type: functional; set-up: scale not given: the % may be the effect or the level left; settings: route intraperitoneal
4T1 [3] = assay: Antimetastatic activity against mouse 4T1 cells xenografted in […] mouse assessed as inhibition of lung metastasis at 3 mg/kg, ip qd for 28 days; type: functional, organism-based; set-up: dose 3 mg/kg
Mus musculus [4] = assay: Antimetastatic activity against mouse 4T1 cells xenografted in BALB/c mouse assessed as reduction of myeloid derived suppressor cells accumulation in spleen at 3 mg/kg, ip qd for 23 days by flow cytometry analysis relative to control; type: functional; set-up: scale not given: the % may be the effect or the level left; settings: route intraperitoneal
[5] = tested on: Lewis lung carcinoma cell line; assay: Antitumor activity against mouse LLC cells xenografted in C57BL/6 mouse assessed as tumor growth inhibition at 6 mg/kg, ip qd for 15 days relative to control; type: functional; settings: 360 h, route intraperitoneal, read-out: GI
4T1 [6] = assay: Antitumor activity against mouse 4T1 cells xenografted in […] mouse assessed as tumor growth inhibition at 3 mg/kg, ip qd for 28 days relative to control; type: functional; settings: 4T1, ip, 672 h, route intraperitoneal, read-out: GI
Mus musculus [7] = assay: Toxicity in mouse LLC cells xenografted C57BL/6 mouse assessed as decrease in body weight at 6 mg/kg, ip qd for 15 days; type: organism-based; set-up: dose 6 mg/kg, route intraperitoneal; settings: in vivo, 360 h
[8] = tested on: Lewis lung carcinoma cell line; assay: Antimetastatic activity against mouse LLC cells xenografted in C57BL/6 mouse assessed as inhibition of lung metastasis at 6 mg/kg, ip qd for 15 days relative to control; type: functional, organism-based; set-up: dose 6 mg/kg

## CC(=O)O[C@H]1C(=O)[C@@]2(C)[C@H]([C@H](OC(=O)c3ccccc3)[C@]3(O)C[C@H](OC(=O)[C@H](O)[C@@H](NC(=O)c4ccccc4)c4ccccc4)C(C)=C1C3(C)C)[C@]1(OC(C)=O)CO[C@@H]1C[C@@H]2O [PACLITAXEL]
Mus musculus [1]
  Activity: Non-toxic
Mus musculus [2]
  Activity: 79.1%
4T1 [3]
  growth inhibition (GI): inactive
Mus musculus [4]
  Activity: 46.7%
[5]
  inhibition in vivo at 6 mg/kg: 26.2%
4T1 [6]
  inhibition in vivo at 3 mg/kg: 30.5%
Mus musculus [7]
  Activity: Non-toxic
[8]
  growth inhibition (GI): inactive
